Source: patent publication US20080318792A1, “Extension of pollination period” (priority 2007, published 2008)

Assays:
[1] = test system: corn seed lot "Hughes High" (commercial hybrid); test: Dose-response of corn soil emergence to ABA seed treatment in calendar and thermal time; format: in vivo
Description: Because corn germination and phenology is driven by heat, the corn seed industry uses thermal time (Growing-Degree-Days, or GDD) rather than calendar time to measure and predict flowering. The standard formula for calculating the GDD contribution from one calendar day for corn is: where “Max temp” is either the high temperature for the day or 86, whichever is lower, and “Min temp” is either the low temperature for the day in F or 50, whichever is higher. In growth chambers at constant temperature the calculation is trivial. For example, in our nominally 25° C. chamber, the soil temperature is actually about 26.1° C. (79 F) due to the heat contribution of the light. This time corresponds to 29 GDD. […] The purpose of this experiment was to evaluate the dose response of corn seed emergence after seed treatment with ABA in terms of thermal time. ABA was applied at 0, 1, 2, 3, 4, 5, 10, 15, 20 and 25 g/cwt as the free acid in experimental seed treatment slurries as described under Example 1. The seed lot was designated as “Hughes High” and was a commercial hybrid. The seed was planted in soil in plastic boxes as described under Example 2, and incubated at 25° C. and 18° C. as described under Example 2. Emergence was counted every 1-2 days and the data reduced as described under Example 2. The daily heat unit contribution was calculated for the two chambers, and the responses examined in cumulative thermal time as well as calendar time.

[2] = test system: commercial inbred sorghum lines; test: Soil emergence of sorghum inbreds after ABA seed treatment; format: in vivo; details: for Emergence / Median time to emergence / Quartile range: soil 20/30° C.
Experimental: Seed of four commercial inbred sorghum lines were obtained from a genetics supplier. These inbreds are representative of many male parents used in hybrid sorghum seed production. ABA in the form of the free acid was applied at rates of 0, 10, 25, 50 and 100 g/cwt. Application was performed as described under Example 2 above, except the Maxim XL (Syngenta) was applied at 0.334 oz/cwt, Allegiance FL (Bayer), was applied at 0.75 oz/cwt, and Thiram 42-S (Bayer) was applied at 3.5 oz/cwt, using a slurry rate of 25 oz/cwt. The seed was planted in soil in plastic boxes as described under Example 2, except at a depth of 2 cm., and incubated at 20/30° C. (AOSA Rules for Testing Seeds, 2005). Emergence was counted every 1-3 days and the data reduced as described under Example 2.

[3] = ABA free acid 20 g/cwt, 25° C. soil test
[4] = sorghum inbred 43, ABA 10 g/cwt
[5] = sorghum inbred 43, ABA 25 g/cwt
[6] = sorghum inbred 43, ABA 50 g/cwt
[7] = sorghum inbred 43, ABA 100 g/cwt
[8] = sorghum inbred 44, ABA 10 g/cwt
[9] = sorghum inbred 44, ABA 25 g/cwt
[10] = sorghum inbred 44, ABA 50 g/cwt
[11] = sorghum inbred 44, ABA 100 g/cwt
[12] = sorghum inbred 45, ABA 10 g/cwt
[13] = sorghum inbred 45, ABA 25 g/cwt
[14] = sorghum inbred 45, ABA 50 g/cwt
[15] = sorghum inbred 45, ABA 100 g/cwt
[16] = sorghum inbred 46, ABA 10 g/cwt
[17] = sorghum inbred 46, ABA 25 g/cwt
[18] = sorghum inbred 46, ABA 50 g/cwt
[19] = sorghum inbred 46, ABA 100 g/cwt

CC1=CC(=O)CC(C)(C)[C@@]1(O)/C=C/C(C)=C\C(=O)O [ABA, S-(+)-abscisic acid]
effect on emergence of corn seedlings ([1]; ABA free acid 1-25 g/cwt, 18 and 25° C.): delayed emergence progressively as the dose was increased
Emergence ([1]; ABA free acid 1 g/cwt, 18° C. soil test): 94.2%
Emergence ([1]; ABA free acid 1 g/cwt, 25° C. soil test): 97.1%
Emergence ([1]; ABA free acid 2 g/cwt, 18° C. soil test): 91.2%
Emergence ([1]; ABA free acid 2 g/cwt, 25° C. soil test): 95.5%
Emergence ([1]; ABA free acid 3 g/cwt, 18° C. soil test): 94.0%
Emergence ([1]; ABA free acid 3 g/cwt, 25° C. soil test): 92.1%
Emergence ([1]; ABA free acid 4 g/cwt, 18° C. soil test): 89.2%
Emergence ([1]; ABA free acid 4 g/cwt, 25° C. soil test): 96.3%
Emergence ([1]; ABA free acid 5 g/cwt, 18° C. soil test): 92.0%
Emergence ([1]; ABA free acid 5 g/cwt, 25° C. soil test): 95.0%
Emergence ([1]; ABA free acid 10 g/cwt, 18° C. soil test): 94.0%
Emergence ([1]; ABA free acid 10 g/cwt, 25° C. soil test): 89.0%
Emergence ([1]; ABA free acid 15 g/cwt, 18° C. soil test): 92.1%
Emergence ([1]; ABA free acid 15 g/cwt, 25° C. soil test): 96.3%
Emergence ([1]; ABA free acid 20 g/cwt, 18° C. soil test): 90.1%
Emergence [1, 3]: 95.0%
delay [1, 3]: 3.4 days
Emergence ([1]; ABA free acid 25 g/cwt, 18° C. soil test): 88.1%
Emergence ([1]; ABA free acid 25 g/cwt, 25° C. soil test): 97.1%
effect on emergence of sorghum inbreds ([2]; ABA 10-100 g/cwt): progressively and significantly delayed emergence
Emergence [2, 4]: 94.0%
Median time to emergence [2, 4]: 5.1 days
Quartile range [2, 4]: 1.5 days
Emergence [2, 5]: 94.2%
Median time to emergence [2, 5]: 6.3 days
Quartile range [2, 5]: 2.2 days
Emergence [2, 6]: 87.2%
Median time to emergence [2, 6]: 8.6 days
Quartile range [2, 6]: 3.7 days
Emergence [2, 7]: 87.9%
Median time to emergence [2, 7]: 11.3 days
Quartile range [2, 7]: 4.8 days
Emergence [2, 8]: 79.0%
Median time to emergence [2, 8]: 5.7 days
Quartile range [2, 8]: 2.6 days
Emergence [2, 9]: 73.2%
Median time to emergence [2, 9]: 8.4 days
Quartile range [2, 9]: 3.2 days
Emergence [2, 10]: 71.3%
Median time to emergence [2, 10]: 10.7 days
Quartile range [2, 10]: 4.6 days
Emergence [2, 11]: 49.0%
Median time to emergence [2, 11]: 14.4 days
Quartile range [2, 11]: 4.7 days
Emergence [2, 12]: 81.3%
Median time to emergence [2, 12]: 5.4 days
Quartile range [2, 12]: 1.5 days
Emergence [2, 13]: 77.1%
Median time to emergence [2, 13]: 7.3 days
Quartile range [2, 13]: 3.1 days
Emergence [2, 14]: 54.1%
Median time to emergence [2, 14]: 10.6 days
Quartile range [2, 14]: 3.5 days
Emergence [2, 15]: 25.0%
Median time to emergence [2, 15]: 14.9 days
Quartile range [2, 15]: 6.7 days
Emergence [2, 16]: 89.2%
Median time to emergence [2, 16]: 5.7 days
Quartile range [2, 16]: 2.6 days
Emergence [2, 17]: 86.1%
Median time to emergence [2, 17]: 7.0 days
Quartile range [2, 17]: 3.0 days
Emergence [2, 18]: 86.2%
Median time to emergence [2, 18]: 8.8 days
Quartile range [2, 18]: 3.9 days
Emergence [2, 19]: 75.1%
Median time to emergence [2, 19]: 11.4 days
Quartile range [2, 19]: 5.0 days
